Reference: patent US20100179188A1, “NITROXIDE RADICAL AS TREATMENT FOR NEURODEGENERATION” (Office of Technology Transfer, NIH, priority 2007, published 2010)

Tests used:
[1] = target: T1, cytosolic aconitase (Mus musculus, UniProt P28271); assay: In-gel aconitase assay in mouse embryonic fibroblast lysates, cytosolic aconitase; format: cell-based; details: assessed 8 hours after removal; mouse embryonic fibroblasts treated 16 hours
T1 construct: Embryonic fibroblasts of 13-day old embryos were isolated from wild type, IRP1−/− mice and IRP2−/− mice; endogenous in cells; host or cells: mouse embryonic fibroblasts (wild type and IRP2−/−)
T1 sequence (P28271 1-889): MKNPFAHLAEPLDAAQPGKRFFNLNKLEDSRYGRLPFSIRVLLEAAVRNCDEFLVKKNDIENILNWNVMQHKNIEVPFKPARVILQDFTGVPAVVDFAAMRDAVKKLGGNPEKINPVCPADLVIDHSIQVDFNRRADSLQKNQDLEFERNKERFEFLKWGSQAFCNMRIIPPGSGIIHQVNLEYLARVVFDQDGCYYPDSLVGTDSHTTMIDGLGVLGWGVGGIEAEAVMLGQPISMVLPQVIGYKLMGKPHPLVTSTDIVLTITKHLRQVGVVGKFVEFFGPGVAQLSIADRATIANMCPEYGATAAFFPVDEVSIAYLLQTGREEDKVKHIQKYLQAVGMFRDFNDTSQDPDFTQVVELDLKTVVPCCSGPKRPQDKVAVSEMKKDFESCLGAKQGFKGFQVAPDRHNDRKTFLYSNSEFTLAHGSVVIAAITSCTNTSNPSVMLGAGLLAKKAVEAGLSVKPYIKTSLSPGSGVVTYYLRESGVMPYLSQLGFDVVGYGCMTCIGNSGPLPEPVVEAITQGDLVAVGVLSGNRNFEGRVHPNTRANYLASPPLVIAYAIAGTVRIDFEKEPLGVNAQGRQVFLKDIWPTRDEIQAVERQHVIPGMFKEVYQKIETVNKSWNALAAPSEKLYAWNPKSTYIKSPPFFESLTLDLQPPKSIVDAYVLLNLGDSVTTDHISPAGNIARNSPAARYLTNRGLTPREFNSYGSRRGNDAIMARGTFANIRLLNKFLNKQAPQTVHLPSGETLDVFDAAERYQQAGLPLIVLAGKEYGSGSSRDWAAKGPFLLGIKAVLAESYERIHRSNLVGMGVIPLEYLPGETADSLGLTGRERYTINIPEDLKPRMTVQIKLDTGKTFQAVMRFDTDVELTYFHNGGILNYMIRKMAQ
Method: (§1) Cells: Embryonic fibroblasts of 13-day old embryos were isolated from wild type, IRP1−/− mice and IRP2−/− mice as described in LaVaute et al. supra. Myc-tagged HEK 293 Tet-on cell line, in which IRP2 expression was inducible, was prepared and cultured as described Bourdon et al., Blood Cells Mol Dis, 31, 247-255 (2003). Erythroblasts were harvested from bone marrow and purified as described in Cooperman et al., Blood, 106, 1084-1091 (2005).
Aconitase assay: Aconitase activity gels for human lysates were performed as described in Tong et al., infra, and aconitase activity gels for mouse lysate were performed with the following modifications. The gel was composed of a separating gel containing 6% acrylamide, 132 mM Tris base, 66 mM borate, 3.6 mM citrate, and a stacking gel containing 4% acrylamide, 66 mM Tris base, 33 mM borate, 3.6 mM citrate. The running buffer contains 25 mM Tris pH 8.3, 96 mM glycine, and 3.6 mM citrate. Electrophoresis were carried out at 170 V at 4° C. Spectral aconitase activity was measured by following the method of Fillebeen et al., infra, using cis-aconitate as the substrate.
To confirm that nitroxide radicals activate IRP1 binding by disassembly of the iron-sulfur cluster, we performed in-gel aconitase assays to determine whether Tempo1 decreased the activity of cytosolic aconitase. […] The band that represented the cytosolic aconitase was readily identified by its absence in lysates from IRP1−/− cells. […]
(§2) To determine whether the effect of Tempo1 on IRP1 activity was kinetically consistent with oxidative disassembly of the iron sulfur cluster, the effect of Tempo1 on aconitase activity was compared to that of the iron chelator, deferiprone (DFO), which activates IRE-binding activity of IRP1 by limiting de novo synthesis and repair of the iron sulfur cluster in IRP1. […] Recovery of aconitase activity was assessed in wild type and IRP2−/− cells.

[2] = target: T2, IRP1 (Mus musculus, UniProt P28271); assay: Gel-shift of IRP1 in wild type and IRP2−/− mouse embryonic fibroblasts after Tempo1 or DFO and washout; format: cell-based; parameters: Embryonic fibroblasts of 13-day old embryos were isolated from wild type, IRP1−/− mice and IRP2−/− mice; endogenous in cells; host or cells: mouse embryonic fibroblasts (wild type and IRP2−/−); details: wild type and IRP2−/− mouse embryonic fibroblasts treated 16 hours
T2 sequence (P28271 1-889): T1 sequence (P28271 1-889)
Method: as §1
(§3) RNA mobility shift assays: Gel retardation assays were performed as described in Meyron-Holtz et al., EMBO J, 23, 386-395 (2004). Tissue lysates were prepared in an anaerobic chamber as described above in oxygen-depleted lysis buffer containing 10 mM HEPES (pH 7.2), 3 mM MgC12, 40 mM KCl, 5% glycerol, 0.2% Nonidet P-40, 5 mM DTT, 1 mM AEBSF, 10 μg/ml. Leupeptin and complete TM EDTA free protease inhibitor cocktail (Roche Applied Science, Indiana). Lysate (x μl) containing 10 μg of total protein was added to (12.5−x) μl of bandshift buffer containing 25 mM Tris-HCl (pH 7.5) and 40 mM KCl. The samples were incubated for 5 min at room temperature (RT) with 12.5 μl of a reaction cocktail containing 20% glycerol, 0.2 U/μl Super RNAsine (Ambion, Tex.), 0.6 μg/μl yeast t-RNA, 5 mM DTT and 20 nM 32P-labelled IRE from human ferritin H-chain gene in 25 mM Tris-HCl (pH 7.5) and 40 mM KCl. A measure of 20 μl of this reaction mixture was loaded into a 10% acrylamide/TBE gel, which was run at 200 V for 2.15 h, and then the gel was fixed, dried and exposed for autoradiography.
as §2

[3] = target: T2, IRP1; assay: Gel-shift of brain lysates treated with β-mercaptoethanol; format: biochemical, mice; parameters: Lysates made from various brain regions of IRP2−/− mice; from tissue; host or cells: mouse brain (cerebellum, forebrain, brain-stem) lysates; details: FIG. 7a
Method: Tissue and lysate preparation: Animals were euthanized and tissues were frozen in liquid nitrogen immediately after harvesting, and stored at −80° C. under argon. Experiments were performed on tissues that were pulverized in liquid N2-cooled mortars in an anaerobic chamber, and then lysed in lysis buffer that was deaerated by cyclic freezethaw and air-removal with argon. Nuclei and debris were removed by centrifugation. Preparations of lysates for assays of IRP1 activity, western blotting, carbonyl assay and protein analysis were performed anaerobically.
RNA mobility shift assays: Gel retardation assays were performed as described in Meyron-Holtz et al., EMBO J, 23, 386-395 (2004). Tissue lysates were prepared in an anaerobic chamber as described above in oxygen-depleted lysis buffer containing 10 mM HEPES (pH 7.2), 3 mM MgC12, 40 mM KCl, 5% glycerol, 0.2% Nonidet P-40, 5 mM DTT, 1 mM AEBSF, 10 μg/ml. Leupeptin and complete TM EDTA free protease inhibitor cocktail (Roche Applied Science, Indiana). Lysate (x μl) containing 10 μg of total protein was added to (12.5−x) μl of bandshift buffer containing 25 mM Tris-HCl (pH 7.5) and 40 mM KCl. […]

[4] = target: T2, IRP1; assay: Gel-shift of erythroblasts treated with β-mercaptoethanol; format: biochemical; parameters: Lysates made from various brain regions of IRP2−/− mice; from tissue; host or cells: mouse brain (cerebellum, forebrain, brain-stem) lysates; details: erythroblasts from wild type mice, high concentrations
Method: as §1
as §3, with “A measure of 20 μl of this reaction mixture was loaded into a 10% acrylamide/TBE gel, which was run at 200 V for 2.15 h, and then the gel was fixed, dried and exposed for autoradiography.” left out

Row | recovery of cytosolic aconitase activity [1] | IRE-binding activity of IRP1 [2] | SMILES | IRE binding activity recruited [3] | additional IRE binding activity of IRP1 [4]
1 | little recovery | activated | Cc1c(O)c(=O)ccn1C [DFO, deferiprone, reference compound] | – | –
2 | – | – | OCCS [β-mercaptoethanol] | significant increases | did not activate additional
